According to publication PMC4604048 (The Pediatric infectious disease journal, 2015):

Experiments:
HIV = details: week 48; cited from earlier work
[1] = in vivo; cited from earlier work
CD4 cell count = assay: Change from baseline in CD4 cell count and percentage at Week 48; assay type: in vivo, human (HIV-1 infected treatment-experienced adolescents); details: Week 48, dolutegravir plus OBR
HIV-1 = assay: Virologic efficacy: plasma HIV-1 RNA through Week 48; assay type: in vivo, human (HIV-1 infected treatment-experienced adolescents); details: Week 48, N=23, dolutegravir plus OBR
[2] = system: virus with R263K mutation at virologic failure; details: adult study where R263K mutation was seen; cited from earlier work
[3] = Safety and adverse events through Week 48
[4] = Intensive steady-state plasma pharmacokinetics of dolutegravir, Stage I; assay type: in vivo, human (HIV-1 infected treatment-experienced adolescents); details: Stage I N=10, ~1 mg/kg once daily; for AUC(0-t) / concentration at 24 h / Cmax / half-life: human, plasma, oral, 1 mg/kg
[5] = Grade 1 or 2 transient clinical events, N=23, not considered related to dolutegravir

Cc1nnc(C(=O)NC(C)(C)c2nc(C(=O)NCc3ccc(F)cc3)c(O)c(=O)n2C)o1 [raltegravir]
virologic efficacy of the adolescent cohort (HIV): 57%

CCC[C@@]1(CCc2ccccc2)CC(O)=C([C@H](CC)c2cccc(NS(=O)(=O)c3ccc(C(F)(F)F)cn3)c2)C(=O)O1 [tipranavir]
children reporting serious adverse events [1]: 25% | treatment discontinuation due to serious adverse events [1]: 8%

C[C@@H]1CCO[C@H]2Cn3cc(C(=O)NCc4ccc(F)cc4F)c(=O)c(O)c3C(=O)N12 [Dolutegravir]
Median (IQR) gain in CD4 cell count (CD4 cell count): 84 cells/µL | Virologic success: proportion with HIV RNA < 400 copies/mL (HIV-1): 74% | proportion with HIV RNA < 50 copies/mL (HIV-1): 61% | dolutegravir FC values at virologic failure [2]: < 2 fold | abdominal pain, subjects [3, 5]: 21% | arthralgia, subjects [3, 5]: 13% | back pain, subjects [3, 5]: 13% | decrease appetite, subjects [3, 5]: 30% | diarrhea, subjects [3, 5]: 35% | dizziness, subjects [3, 5]: 17% | extremity pain, subjects [3, 5]: 26% | fever, subjects [3, 5]: 30% | headache, subjects [3, 5]: 26% | lymphadenopathy, subjects [3, 5]: 26% | nasal congestion, subjects [3, 5]: 30% | nausea, subjects [3, 5]: 13% | pharyngeal pain, subjects [3, 5]: 35% | sinus congestion, subjects [3, 5]: 17% | Grade 4 AEs, SAEs or discontinuations due to AEs ([3]; through Week 48): no Grade 4 AEs, SAEs or discontinuations due to AEs | tolerability ([3]; through Week 48, dolutegravir plus OBR): well tolerated | C24, GM (geometric mean) [4]: 0.90 µg/mL | CL/F, GM [4]: 78.03 L/h | CL/F, Mean (SD) [4]: 1.25 (±0.97) L/hr | CL/F, Median (min, max) [4]: 0.87 (0.59, 3.83) L/hr | Tmax, Median (min, max) [4]: 3.00 (1.00, 6.00) hr | AUC(0-t) ([4]; AUC0–24, GM, Table 2): 43100 ng·h/mL | AUC(0-t) ([4]; AUC0–24, Mean (SD)): 51600 ng·h/mL | AUC(0-t) ([4]; AUC0–24, Median (min, max)): 52900 ng·h/mL | concentration at 24 h ([4]; C24, GM (geometric mean)): 900 ng/mL | concentration at 24 h ([4]; C24, Mean (SD)): 1090 ng/mL | concentration at 24 h ([4]; C24, Median (min, max)): 1140 ng/mL | Cmax ([4]; Mean (SD)): 3820 ng/mL | Cmax ([4]; Median (min, max)): 4010 ng/mL | half-life ([4]; T1/2, GM): 11.9 h | half-life ([4]; T1/2, Median (min, max)): 10.4 h
